Values after ≈ are worked out from the molar mass of the structure shown.
Key:
Streptococcus pyogenes [1] = assay: Antibacterial activity against erythromycin-resistant Streptococcus pyogenes RE clinical isolate by broth microdilution method; type: functional
Streptococcus pyogenes [2] = assay: Antibacterial activity against erythromycin-susceptible Streptococcus pyogenes by broth microdilution method; type: functional
Staphylococcus aureus [3] = assay: Antibacterial activity against penicillin-resistant Staphylococcus aureus clinical isolate by broth microdilution method; type: functional
Salmonella typhimurium [4] = assay: Antibacterial activity against Salmonella typhimurium TA98 by broth microdilution method; type: functional, Salmonella enterica subsp. enterica serovar Typhimurium; details: Salmonella enterica
Streptococcus pneumoniae [5] = assay: Antibacterial activity against erythromycin-susceptible Streptococcus pneumoniae ATCC 49619 by broth microdilution method; type: functional
Staphylococcus aureus [6] = assay: Antibacterial activity against erythromycin-susceptible Staphylococcus aureus ATCC 25923 by broth microdilution method; type: functional
Streptococcus pneumoniae [7] = assay: Antibacterial activity against erythromycin-resistant Streptococcus pneumoniae B1 expressing erm gene by broth microdilution method; type: functional
Staphylococcus aureus [8] = assay: Antibacterial activity against methicillin-susceptible Staphylococcus aureus ATCC 29213 by broth microdilution method; type: functional
Salmonella typhimurium [9] = assay: Antibacterial activity against Salmonella typhimurium TA102 by broth microdilution method; type: functional, Salmonella enterica subsp. enterica serovar Typhimurium; details: Salmonella enterica
Streptococcus pneumoniae [10] = assay: Antibacterial activity against erythromycin-resistant Streptococcus pneumoniae A22072 expressing mef gene by broth microdilution method; type: functional
Streptococcus pneumoniae [11] = assay: Antibacterial activity against erythromycin-resistant Streptococcus pneumoniae AB11 expressing erm and mef genes by broth microdilution method; type: functional
Streptococcus pneumoniae [12] = assay: Ratio of azithromycin MIC to compound MIC for erythromycin-resistant Streptococcus pneumoniae B1; type: functional
Streptococcus pneumoniae [13] = assay: Ratio of azithromycin MIC to compound MIC for erythromycin-resistant Streptococcus pneumoniae A22072 expressing mef gene; type: functional
Streptococcus pneumoniae [14] = assay: Ratio of azithromycin MIC to compound MIC for erythromycin-resistant Streptococcus pneumoniae AB11 expressing erm and mef genes; type: functional

| SMILES | MIC (Streptococcus pyogenes [1]) | MIC (Streptococcus pyogenes [2]) | MIC (Staphylococcus aureus [3]) | MIC (Salmonella typhimurium [4]) | MIC (Streptococcus pneumoniae [5]) | MIC (Staphylococcus aureus [6]) | MIC (Streptococcus pneumoniae [7]) | MIC (Staphylococcus aureus [8]) | MIC (Salmonella typhimurium [9]) | MIC (Streptococcus pneumoniae [10]) | MIC (Streptococcus pneumoniae [11]) | Ratio (Streptococcus pneumoniae [12]) | Ratio (Streptococcus pneumoniae [13]) | Ratio (Streptococcus pneumoniae [14]) |
| --- | --- | --- | --- | --- | --- | --- | --- | --- | --- | --- | --- | --- | --- | --- |
| CC[C@H]1OC(=O)[C@H](C)[C@@H](O[C@H]2C[C@@](C)(OC)[C@@H](OC(=O)NCCNC(=O)c3ccc(OC)c(OC)c3)[C@H](C)O2)[C@H](C)[C@@H](O[C@@H]2O[C@H](C)C[C@H](N(C)C)[C@H]2O)[C@](C)(O)C[C@@H](C)CN(C)[C@H](C)[C@@H](OC(=O)NCCc2ccccc2)[C@]1(C)O | 64 µg/mL (≈ 55.8 µM) | 32 µg/mL (≈ 27.9 µM) | 4 µg/mL (≈ 3.49 µM) | 8 µg/mL (≈ 6.98 µM) | 0.06 µg/mL (≈ 0.0523 µM) | 1 µg/mL (≈ 0.872 µM) | 4 µg/mL (≈ 3.49 µM) | 4 µg/mL (≈ 3.49 µM) | 2 µg/mL (≈ 1.74 µM) | 0.5 µg/mL (≈ 0.436 µM) | 16 µg/mL (≈ 14 µM) |  |  |  |
| CC[C@H]1OC(=O)[C@H](C)[C@@H](O[C@H]2C[C@@](C)(OC)[C@@H](OC(=O)NCCCCNC(=O)c3cc([N+](=O)[O-])cc([N+](=O)[O-])c3)[C@H](C)O2)[C@H](C)[C@@H](O[C@@H]2O[C@H](C)C[C@H](N(C)C)[C@H]2O)[C@](C)(O)C[C@@H](C)CN(C)[C@H](C)[C@@H](OC(=O)NCc2ccc(F)c(F)c2)[C@]1(C)O | 16 µg/mL (≈ 13 µM) | 2 µg/mL (≈ 1.63 µM) | 4 µg/mL (≈ 3.26 µM) | 1 µg/mL (≈ 0.815 µM) | 0.03 µg/mL (≈ 0.0245 µM) | 0.25 µg/mL (≈ 0.204 µM) | 0.25 µg/mL (≈ 0.204 µM) | 4 µg/mL (≈ 3.26 µM) | 0.5 µg/mL (≈ 0.408 µM) | 0.03 µg/mL (≈ 0.0245 µM) | 2 µg/mL (≈ 1.63 µM) | 512 | 133 | 128 |
| CC[C@H]1OC(=O)[C@H](C)[C@@H](O[C@H]2C[C@@](C)(OC)[C@@H](OC(=O)NCCCCNC(=O)c3cc([N+](=O)[O-])cc([N+](=O)[O-])c3)[C@H](C)O2)[C@H](C)[C@@H](O[C@@H]2O[C@H](C)C[C@H](N(C)C)[C@H]2O)[C@](C)(O)C[C@@H](C)CN(C)[C@H](C)[C@@H](OC(=O)NCCc2ccc(OC)cc2)[C@]1(C)O | 16 µg/mL (≈ 13 µM) | 1 µg/mL (≈ 0.81 µM) | 4 µg/mL (≈ 3.24 µM) | 1 µg/mL (≈ 0.81 µM) | 0.03 µg/mL (≈ 0.0243 µM) | 0.25 µg/mL (≈ 0.203 µM) | 0.25 µg/mL (≈ 0.203 µM) | 4 µg/mL (≈ 3.24 µM) | 0.5 µg/mL (≈ 0.405 µM) | 0.03 µg/mL (≈ 0.0243 µM) | 2 µg/mL (≈ 1.62 µM) | 512 | 133 | 128 |
| CC[C@H]1OC(=O)[C@H](C)[C@@H](O[C@H]2C[C@@](C)(OC)[C@@H](OC(=O)NCCCCNC(=O)c3cc([N+](=O)[O-])cc([N+](=O)[O-])c3)[C@H](C)O2)[C@H](C)[C@@H](O[C@@H]2O[C@H](C)C[C@H](N(C)C)[C@H]2O)[C@](C)(O)C[C@@H](C)CN(C)[C@H](C)[C@@H](OC(=O)NCCc2ccccc2Cl)[C@]1(C)O | 16 µg/mL (≈ 12.9 µM) | 1 µg/mL (≈ 0.807 µM) | 2 µg/mL (≈ 1.61 µM) | 1 µg/mL (≈ 0.807 µM) | 0.03 µg/mL (≈ 0.0242 µM) | 0.12 µg/mL (≈ 0.0969 µM) | 0.25 µg/mL (≈ 0.202 µM) | 4 µg/mL (≈ 3.23 µM) | 0.25 µg/mL (≈ 0.202 µM) | 0.03 µg/mL (≈ 0.0242 µM) | 2 µg/mL (≈ 1.61 µM) | 512 | 133 | 128 |
| CC[C@H]1OC(=O)[C@H](C)[C@@H](O[C@H]2C[C@@](C)(OC)[C@@H](OC(=O)NNC(=O)c3ccccc3OC)[C@H](C)O2)[C@H](C)[C@@H](O[C@@H]2O[C@H](C)C[C@H](N(C)C)[C@H]2O)[C@](C)(O)C[C@@H](C)CN(C)[C@H](C)[C@@H](OC(=O)NCCc2ccccc2)[C@]1(C)O | 64 µg/mL (≈ 58.8 µM) | 32 µg/mL (≈ 29.4 µM) | 4 µg/mL (≈ 3.68 µM) | 16 µg/mL (≈ 14.7 µM) | 0.06 µg/mL (≈ 0.0551 µM) | 2 µg/mL (≈ 1.84 µM) | 8 µg/mL (≈ 7.35 µM) | 2 µg/mL (≈ 1.84 µM) | 8 µg/mL (≈ 7.35 µM) | 2 µg/mL (≈ 1.84 µM) | 16 µg/mL (≈ 14.7 µM) |  |  |  |
| CC[C@H]1OC(=O)[C@H](C)[C@@H](O[C@H]2C[C@@](C)(OC)[C@@H](OC(=O)NNC(=O)c3ccc(Cl)cc3)[C@H](C)O2)[C@H](C)[C@@H](O[C@@H]2O[C@H](C)C[C@H](N(C)C)[C@H]2O)[C@](C)(O)C[C@@H](C)CN(C)[C@H](C)[C@@H](OC(=O)NCCc2ccccc2)[C@]1(C)O | 32 µg/mL (≈ 29.3 µM) | 1 µg/mL (≈ 0.915 µM) | 8 µg/mL (≈ 7.32 µM) | 1 µg/mL (≈ 0.915 µM) | 0.03 µg/mL (≈ 0.0275 µM) | 0.5 µg/mL (≈ 0.458 µM) | 2 µg/mL (≈ 1.83 µM) | 2 µg/mL (≈ 1.83 µM) | 8 µg/mL (≈ 7.32 µM) | 0.12 µg/mL (≈ 0.11 µM) | 8 µg/mL (≈ 7.32 µM) |  |  |  |
| CC[C@H]1OC(=O)[C@H](C)[C@@H](O[C@H]2C[C@@](C)(OC)[C@@H](OC(=O)NCCNC(=O)c3ccc(C)cc3)[C@H](C)O2)[C@H](C)[C@@H](O[C@@H]2O[C@H](C)C[C@H](N(C)C)[C@H]2O)[C@](C)(O)C[C@@H](C)CN(C)[C@H](C)[C@@H](OC(=O)NCCc2ccccc2)[C@]1(C)O | 64 µg/mL (≈ 58.2 µM) | 8 µg/mL (≈ 7.27 µM) | 8 µg/mL (≈ 7.27 µM) | 2 µg/mL (≈ 1.82 µM) | 0.06 µg/mL (≈ 0.0545 µM) | 1 µg/mL (≈ 0.909 µM) | 2 µg/mL (≈ 1.82 µM) | 2 µg/mL (≈ 1.82 µM) | 2 µg/mL (≈ 1.82 µM) | 0.12 µg/mL (≈ 0.109 µM) | 8 µg/mL (≈ 7.27 µM) |  |  |  |
| CC[C@H]1OC(=O)[C@H](C)[C@@H](O[C@H]2C[C@@](C)(OC)[C@@H](O)[C@H](C)O2)[C@H](C)[C@@H](O[C@@H]2O[C@H](C)C[C@H](N(C)C)[C@H]2O)[C@](C)(O)C[C@@H](C)CN(C)[C@H](C)[C@@H](O)[C@]1(C)O [AZITHROMYCIN] | 8 µg/mL (≈ 10.7 µM) | 0.03 µg/mL (≈ 0.0401 µM) | 0.5 µg/mL (≈ 0.668 µM) | 0.5 µg/mL (≈ 0.668 µM) | 0.03 µg/mL (≈ 0.0401 µM) | 0.25 µg/mL (≈ 0.334 µM) | 128 µg/mL (≈ 171 µM) | 2 µg/mL (≈ 2.67 µM) | 0.25 µg/mL (≈ 0.334 µM) | 4 µg/mL (≈ 5.34 µM) | 256 µg/mL (≈ 342 µM) |  |  |  |
| CC[C@H]1OC(=O)[C@H](C)[C@@H](O[C@H]2C[C@@](C)(OC)[C@@H](O)[C@H](C)O2)[C@H](C)[C@@H](O[C@@H]2O[C@H](C)C[C@H](N(C)C)[C@H]2O)[C@](C)(OC)C[C@@H](C)C(=O)[C@H](C)[C@@H](O)[C@]1(C)O [CLARITHROMYCIN] | 4 µg/mL (≈ 5.35 µM) | 0.03 µg/mL (≈ 0.0401 µM) | 0.03 µg/mL (≈ 0.0401 µM) | 0.5 µg/mL (≈ 0.668 µM) | 0.03 µg/mL (≈ 0.0401 µM) | 0.12 µg/mL (≈ 0.16 µM) | 64 µg/mL (≈ 85.6 µM) | 0.12 µg/mL (≈ 0.16 µM) | 0.25 µg/mL (≈ 0.334 µM) | 4 µg/mL (≈ 5.35 µM) | 128 µg/mL (≈ 171 µM) |  |  |  |
| CC[C@H]1OC(=O)[C@H](C)[C@@H](O[C@H]2C[C@@](C)(OC)[C@@H](O)[C@H](C)O2)[C@H](C)[C@@H](O[C@@H]2O[C@H](C)C[C@H](N(C)C)[C@H]2O)[C@](C)(O)C[C@@H](C)C(=O)[C@H](C)[C@@H](O)[C@]1(C)O [ERYTHROMYCIN] | 4 µg/mL (≈ 5.45 µM) | 0.03 µg/mL (≈ 0.0409 µM) | 0.25 µg/mL (≈ 0.341 µM) | 0.5 µg/mL (≈ 0.681 µM) | 0.03 µg/mL (≈ 0.0409 µM) | 0.06 µg/mL (≈ 0.0818 µM) | 128 µg/mL (≈ 174 µM) | 0.12 µg/mL (≈ 0.164 µM) | 2 µg/mL (≈ 2.73 µM) | 8 µg/mL (≈ 10.9 µM) | 256 µg/mL (≈ 349 µM) |  |  |  |
